Reference: US20140162974A1, “METHODS FOR MODULATION OF PHOSPHORUS AND FGF23” (Luitpold Pharmaceuticals, Inc., priority 2012, published 2014)

What was measured:
[1] = test system: C-terminal FGF23 (cFGF23); test: Example 3 trial: plasma C-terminal FGF23; assay type: in vivo, human; conditions: for effect on cFGF23 levels: in vivo; for lowering of cFGF23 levels within 24 hours: intravenous iron in iron deficient women; for C-terminal FGF23, Day 1 / C-terminal FGF23, Day 7 / C-terminal FGF23, Day 14 / C-terminal FGF23, Day 35: mean ± standard error, unit from the 3rd table
Description: Study visits were on Days 0 (when iron was infused), 1 (24 hours after iron infusion), 7, 14, and 35. The primary objectives were to determine the effect of iron deficiency on cFGF23 and iFGF23 levels and the effect of intravenous iron on iFGF23 and cFGF23 levels.
Randomization occurred centrally via a fax-based system. […] The complete dose was infused over 15 minutes on day 0. […] An initial test dose of 25 mg was administered slowly over 5 minutes.
Laboratory testing of blood and three-hour urine collections was performed at the screening visit and on study days 0 (when iron was infused), 1 (24 hours after iron infusion), 7, 14, and 35 (see e.g., FIG. 2A). Any subject who experienced a reduction in serum phosphate below the normal range after day 0 underwent additional phosphate measurements at 14 day intervals following day 35 until the level returned to the normal reference range. Safety evaluations of all subjects included ascertainment of adverse events, physical examinations at all study visits, and laboratory assessments. Any subject who withdrew from the study received a follow-up phone call to ascertain adverse events 30 days after they received study drug.
Blood and urine samples were sent to a central laboratory for analysis (Covance Central Laboratory Service, Indianapolis, Ind.). Hemoglobin, blood counts, iron indices, electrolytes, and serum and urinary phosphate and creatinine were measured with standard, automated, multi-analyte techniques. Urinary fractional excretion of phosphate (FEPi) was calculated from the three-hour, morning urine collections as urinary phosphate x serum creatinine/serum phosphate x urinary creatinine. Serum levels of 25-hydroxyvitamin D and 1,25-dihydroxyvitamin D were measured in duplicate by radioimmunoassay (DiaSorin, Stillwater, Minn.) with intra-assay coefficients of variation (CV)<11.6%. Plasma C-terminal FGF23 (cFGF23) was measured in duplicate in EDTA-plasma samples using a human FGF23 immunometric assay capable of detecting both the intact peptide and its C-terminal fragments (Immutopics, San Clemente, Ca) with intra-assay CV≦3.8%. Because cFGF23 testing was performed in parallel with rolling enrollment and follow-up, all cFGF23 assay plates tested combinations of baseline and post-intervention samples from multiple study participants. Serum intact FGF23 (iFGF23) was measured in batches of baseline and post-intervention samples from multiple study participants at study end using an immunometric assay that detects the intact peptide exclusively (Kyowa Medex Company, Shizuoka, Japan) with intra-assay CV<2.7%. Serum hepcidin levels were measured on days 0, 7, and 35 using an enzyme-linked immunosorbent assay (Intrinsic LifeSciences, La Jolla, Calif.) with intra-assay CV≦19%. Urinary amino acids, glucose, albumin, and beta 2 microglobulin were measured to test for the possibility of global proximal tubular dysfunction. Urinary deoxypyridinoline cross link, and serum osteocalcin and bone-specific alkaline phosphatase were measured to assess bone turnover.
Baseline characteristics are presented as mean±standard error for continuous variables and as proportions for categorical variables. The association between iron indices and baseline and change in FGF23 levels was assessed with Spearman correlations. Restricted maximum likelihood-based repeated measures analyses (linear mixed models) that considered the effects of treatment, visit, and treatment x time interaction, with baseline values treated as a fixed covariate were used for the primary analyses of mean changes from baseline in continuous markers of phosphate homeostasis. The models employed unstructured covariance structures without imputing missing values. All outcome variables that were not normally distributed were analyzed after natural log-transformation. […]

Phosphorus = test: VIT-23 study: phosphorus at study visits; assay type: in vivo, human
Description: Subjects with a hemoglobin (Hgb) that meets inclusion requirements and no exclusionary criteria will be offered participation in this 5-6 week study.
During the Treatment Phase, all subjects received a maximum dose of 1000 mg of IV iron. […] If no reaction occurred, the remainder of the dose (up to 15 mg/kg or 1000 mg including the test dose) was given as per Investigator. The infusion was given only when resuscitative techniques for the treatment of anaphylactic and anaphylactoid reactions were readily available.
Primary Endpoints included changes in blood and urine markers of phosphate and bone metabolism following IV iron administration. Blood markers include (all performed in morning after 10 hr fast): Serum Phosphate; Serum Potassium; Plasma Fibroblast growth factor 23 via 2nd generation Immutopics C-terminal assay; Serum Vitamin D; 1, 25 dihydroxy Vitamin D (1,25 [OH]2D); 25 hydroxy Vitamin D (250H-D); Serum Osteocalcin; Serum Bone-specific Alkaline phosphatase; Plasma intact Parathyroid hormone; Serum creatinine; Hepcidin; Reticulocyte count; Hemoglobin; Ferritin; Transferrin Saturation (TSAT); and Sample for archive. Urine markers (collected over a 3 hour period in the morning) (ratio of phosphate to creatinine determined to offset inter-patient variability in urine concentration) include: Phosphate; Creatinine; Calcium; Amino acids; Glucose; Albumin; Deoxypyridinoline cross link (Dpd)—a collagen type I cross link that indicates bone resorption; Beta-2-microglobulin; and Sample for archive.
All subjects had laboratory assessments at Screening, Day 0, Day 1 (24 hrs), Day 7, Day 14, and Day 35. Any subject with a change in phosphate value after Day 0 had additional phosphate measurements at 14 day intervals (following Day 35) until the level returned to normal (as defined by the laboratory reference range). Safety evaluation for all subjects included adverse events, physical examination, including vital signs, and laboratory assessments. Three hour urine collections was also performed on Day 0, Day 1 (24 hrs), Day 7, Day 14, and Day 35. Any subject who withdrew from the study will receive a follow up phone call 30 days after they received study drug.
The “baseline” was the value at Day 0 prior to administration of any study drug. The value of “n” for the baseline measurement may have be different at each study visit because the baseline values were assessed only for those individuals with data at the given visit.

[2] = Day 7 after single IV dose up to 1000 mg iron
[3] = Day 14 after single IV dose up to 1000 mg iron
[4] = Day 35 after single IV dose up to 1000 mg iron

iron dextran [reference compound] was tested, and the “C-terminal FGF23, Change from baseline” value ([1]; Day 1) was −82.5%, the “C-terminal FGF23, Change from baseline” value ([1]; Day 7) was −85.6% and the “C-terminal FGF23, Change from baseline” value ([1]; Day 14) was −87.3%. The “C-terminal FGF23, Change from baseline” value ([1]; Day 35) was −80.0%, the “effect on cFGF23 levels” value [1] was “rapidly lowered” and the “lowering of cFGF23 levels within 24 hours” value [1] was 80%. For the same substance, the “C-terminal FGF23, Day 1” value [1] was 152 ± 17.5 RU/mL, the “C-terminal FGF23, Day 7” value [1] was 114 ± 17.7 RU/mL and the “C-terminal FGF23, Day 14” value [1] was 107 ± 16.0 RU/mL. The “C-terminal FGF23, Day 35” value [1] was 170 ± 51.2 RU/mL, the “Phosphorus, Visit, Mean” value (Phosphorus; [2]) was 3.55 mg/dL and the “Phosphorus, Change to Visit, Max” value (Phosphorus; Day 7 vs baseline) was 1.2 mg/dL. The “Phosphorus, Change to Visit, Mean” value (Phosphorus; Day 7 vs baseline) was -0.07 mg/dL, the “Phosphorus, Change to Visit, Median” value (Phosphorus; Day 7 vs baseline) was -0.1 mg/dL and the “Phosphorus, Change to Visit, Min” value (Phosphorus; Day 7 vs baseline) was -0.9 mg/dL. The “Phosphorus, Visit, Mean” value (Phosphorus; [3]) was 3.58 mg/dL, the “Phosphorus, Change to Visit, Max” value (Phosphorus; Day 14 vs baseline) was 1.4 mg/dL and the “Phosphorus, Change to Visit, Mean” value (Phosphorus; Day 14 vs baseline) was -0.06 mg/dL. For the same substance, the “Phosphorus, Change to Visit, Median” value (Phosphorus; Day 14 vs baseline) was 0.1 mg/dL, the “Phosphorus, Change to Visit, Min” value (Phosphorus; Day 14 vs baseline) was -1.5 mg/dL and the “Phosphorus, Visit, Mean” value (Phosphorus; [4]) was 3.55 mg/dL. For the same substance, the “Phosphorus, Change to Visit, Max” value (Phosphorus; Day 35 vs baseline) was 1.3 mg/dL, the “Phosphorus, Change to Visit, Mean” value (Phosphorus; Day 35 vs baseline) was -0.08 mg/dL and the “Phosphorus, Change to Visit, Median” value (Phosphorus; Day 35 vs baseline) was -0.1 mg/dL. For the same substance, the “Phosphorus, Change to Visit, Min” value (Phosphorus; Day 35 vs baseline) was -1.3 mg/dL.

For “polynuclear iron (III)-hydroxide 4(R)-(poly-(1→4)-O-α-glucopyranosyl)-oxy-2(R),3(S),5(R),6-tetrahydroxy-hexanoate [FCM]”, the “C-terminal FGF23, Change from baseline” value ([1]; Day 1) was −78.6%, the “C-terminal FGF23, Change from baseline” value ([1]; Day 7) was −80.9% and the “C-terminal FGF23, Change from baseline” value ([1]; Day 14) was −77.5%. The “C-terminal FGF23, Change from baseline” value ([1]; Day 35) was −78.9%, the “effect on cFGF23 levels” value [1] was “rapidly lowered” and the “lowering of cFGF23 levels within 24 hours” value [1] was 80%. For the same substance, the “C-terminal FGF23, Day 1” value [1] was 177 ± 12.4 RU/mL, the “C-terminal FGF23, Day 7” value [1] was 165 ± 34.9 RU/mL and the “C-terminal FGF23, Day 14” value [1] was 170 ± 55.8 RU/mL. The “C-terminal FGF23, Day 35” value [1] was 182 ± 73.7 RU/mL, the “cFGF23 in FCM subjects who did vs did not develop serum phosphate<2.0 mg/dL” value ([1]; stratified analysis) was “decreased similarly in both groups” and the “Phosphorus, Visit, Mean” value (Phosphorus; [2]) was 2.51 mg/dL. For the same substance, the “Phosphorus, Change to Visit, Max” value (Phosphorus; Day 7 vs baseline) was 0.7 mg/dL, the “Phosphorus, Change to Visit, Mean” value (Phosphorus; Day 7 vs baseline) was -0.87 mg/dL and the “Phosphorus, Change to Visit, Median” value (Phosphorus; Day 7 vs baseline) was -0.8 mg/dL. For the same substance, the “Phosphorus, Change to Visit, Min” value (Phosphorus; Day 7 vs baseline) was -2.3 mg/dL, the “Phosphorus, Visit, Mean” value (Phosphorus; [3]) was 3.42 mg/dL and the “Phosphorus, Change to Visit, Max” value (Phosphorus; Day 14 vs baseline) was 0.7 mg/dL. The “Phosphorus, Change to Visit, Mean” value (Phosphorus; Day 14 vs baseline) was -0.92 mg/dL, the “Phosphorus, Change to Visit, Median” value (Phosphorus; Day 14 vs baseline) was -0.7 mg/dL and the “Phosphorus, Change to Visit, Min” value (Phosphorus; Day 14 vs baseline) was -3.5 mg/dL. For the same substance, the “Phosphorus, Visit, Mean” value (Phosphorus; [4]) was 3.92 mg/dL, the “Phosphorus, Change to Visit, Max” value (Phosphorus; Day 35 vs baseline) was 1.0 mg/dL and the “Phosphorus, Change to Visit, Mean” value (Phosphorus; Day 35 vs baseline) was -0.38 mg/dL. For the same substance, the “Phosphorus, Change to Visit, Median” value (Phosphorus; Day 35 vs baseline) was -0.2 mg/dL and the “Phosphorus, Change to Visit, Min” value (Phosphorus; Day 35 vs baseline) was -1.9 mg/dL.
